These results are taken from EP4385980A1, “INDAZOLES AS INHIBITORS OF NAV1.8” (Grünenthal GmbH, priority 2022, dated 2024).

The test deals with T1, human NaV1.8 (Homo sapiens, UniProt Q9Y5Y9).
T1 construct: expressed in transfected cells; host or cells: HEK
T1 sequence (Q9Y5Y9 whole entry): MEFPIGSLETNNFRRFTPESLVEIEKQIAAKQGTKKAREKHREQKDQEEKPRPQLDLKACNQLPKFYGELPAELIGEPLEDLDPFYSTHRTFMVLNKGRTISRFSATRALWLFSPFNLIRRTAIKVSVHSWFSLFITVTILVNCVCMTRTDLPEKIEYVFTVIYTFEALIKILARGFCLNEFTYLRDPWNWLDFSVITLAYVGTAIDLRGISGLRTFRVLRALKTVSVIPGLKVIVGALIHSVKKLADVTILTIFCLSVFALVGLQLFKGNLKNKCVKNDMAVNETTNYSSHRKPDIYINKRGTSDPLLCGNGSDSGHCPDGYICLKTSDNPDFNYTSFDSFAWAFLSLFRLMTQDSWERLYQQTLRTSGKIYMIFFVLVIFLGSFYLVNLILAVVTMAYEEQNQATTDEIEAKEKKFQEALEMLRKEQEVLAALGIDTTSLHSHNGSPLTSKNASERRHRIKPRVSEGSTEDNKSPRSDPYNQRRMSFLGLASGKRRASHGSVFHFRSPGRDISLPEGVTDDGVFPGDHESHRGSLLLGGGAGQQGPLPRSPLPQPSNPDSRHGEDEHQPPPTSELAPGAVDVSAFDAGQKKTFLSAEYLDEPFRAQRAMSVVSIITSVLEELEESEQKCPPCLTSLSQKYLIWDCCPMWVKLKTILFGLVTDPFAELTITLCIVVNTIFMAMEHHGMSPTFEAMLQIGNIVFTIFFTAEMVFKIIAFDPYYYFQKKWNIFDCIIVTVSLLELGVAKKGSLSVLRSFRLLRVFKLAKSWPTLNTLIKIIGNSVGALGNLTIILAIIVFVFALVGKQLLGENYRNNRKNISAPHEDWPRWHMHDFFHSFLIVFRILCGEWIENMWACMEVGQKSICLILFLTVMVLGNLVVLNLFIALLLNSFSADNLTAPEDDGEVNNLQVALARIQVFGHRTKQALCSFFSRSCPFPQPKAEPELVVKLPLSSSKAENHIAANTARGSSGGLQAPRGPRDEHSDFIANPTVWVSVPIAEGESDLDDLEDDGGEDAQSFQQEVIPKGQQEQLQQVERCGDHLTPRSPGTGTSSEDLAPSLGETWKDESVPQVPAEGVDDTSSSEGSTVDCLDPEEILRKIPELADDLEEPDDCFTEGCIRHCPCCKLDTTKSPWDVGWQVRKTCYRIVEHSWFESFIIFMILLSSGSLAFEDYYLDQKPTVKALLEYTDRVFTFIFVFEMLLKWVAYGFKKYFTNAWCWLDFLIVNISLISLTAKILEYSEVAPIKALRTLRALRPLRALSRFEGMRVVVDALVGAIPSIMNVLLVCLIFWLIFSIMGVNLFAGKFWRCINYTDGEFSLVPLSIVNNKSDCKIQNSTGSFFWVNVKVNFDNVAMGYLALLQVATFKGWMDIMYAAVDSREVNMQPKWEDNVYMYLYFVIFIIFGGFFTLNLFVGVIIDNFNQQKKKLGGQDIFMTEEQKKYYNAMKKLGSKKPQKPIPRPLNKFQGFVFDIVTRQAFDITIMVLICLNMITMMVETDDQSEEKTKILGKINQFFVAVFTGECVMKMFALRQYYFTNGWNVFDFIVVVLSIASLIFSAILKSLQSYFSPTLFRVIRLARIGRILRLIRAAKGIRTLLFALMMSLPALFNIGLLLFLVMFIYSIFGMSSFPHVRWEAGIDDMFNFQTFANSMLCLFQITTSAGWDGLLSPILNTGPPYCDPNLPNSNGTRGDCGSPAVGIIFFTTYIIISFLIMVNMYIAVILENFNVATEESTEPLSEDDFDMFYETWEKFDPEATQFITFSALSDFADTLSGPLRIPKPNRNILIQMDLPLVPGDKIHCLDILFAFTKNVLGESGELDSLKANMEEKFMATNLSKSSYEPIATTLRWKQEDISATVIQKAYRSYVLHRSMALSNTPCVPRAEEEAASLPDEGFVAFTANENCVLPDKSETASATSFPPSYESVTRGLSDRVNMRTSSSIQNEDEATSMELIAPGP
T1 sequence (Q9NY72 23-215 partner): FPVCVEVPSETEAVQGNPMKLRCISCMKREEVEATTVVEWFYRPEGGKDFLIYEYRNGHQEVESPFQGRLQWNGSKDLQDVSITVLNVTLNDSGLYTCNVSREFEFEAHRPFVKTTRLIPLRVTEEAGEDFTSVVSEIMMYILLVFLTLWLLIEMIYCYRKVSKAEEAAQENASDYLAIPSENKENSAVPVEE
Description: Electrophysiology: voltage-clamp recordings (whole-cell automated patch clamp, Qube384). The format is cell-based. The following applies: HEK-NaV1.8 with b3 recombinant cell line, ambient room temperature, read-out: Potency category (human NaV1.8 IC50). The method, then: The following NaV1.8 recombinant cell line was used for recordings: HEK-NaV1.8 (NM_006514.1) with b3 (NM_018400.3).
Sodium currents were measured using the patch clamp technique in the whole-cell configuration using the Qube384 (Sophion A/S, Copenhagen, Denmark) automated voltage clamp platform. "Multi hole" plates were used for the cell line expressing NaV1.8 while "single hole" plates were used for the recombinant cell lines expressing the other subtypes. Appropriate filters (for minimum seal resistance and minimum current size) and series resistance compensation (for high quality sodium channel recordings) were applied. Data was collected at ambient room temperature.
The recording […] solution contained (in mM): NaCl 145 mM, KCl 4 mM, CaCl2 2 mM, MgCl2 1 mM, HEPES 10 mM, Glucose 10 mM, pH 7.4 (NaOH). The […] recording solution contained (in mM): CsF 120 mM, CsCl 20 mM, NaCl 10 mM, EGTA 10 mM, HEPES 10 mM, pH 7.2 (CsOH). Currents were recorded at 25 kHz sampling frequency and filtered at 5 kHz. Series resistance compensation was applied at 65%.
Vehicle (VEH) is the control condition where cells are exposed to 0.3 % DMSO without compound. All runs include VEH controls being exposed to the same voltage protocols to assess non-compound related phenomena such as run down and then used to isolate compound dependent effects on currents.
To check for state-dependence inhibition, the following voltage-sequence was applied every 20 seconds: From a resting membrane potential of-120 mV, the first test pulse (P1; 20 ms to -10 mV) was applied to check for channels in the Resting State followed by a brief recovery (20 ms to -120 mV), then holding the membrane voltage to V1/2 (4 seconds at voltage to obtain half the channel at Rest and half Inactivated) with a subsequent second test pulse (P2; 20 ms to -10 mV) to check for channels in the Inactivated State, followed by another brief recovery (20 ms to -120 mV) and a final third test pulse (P3; 20 ms to -10 mV) to check for recovered channels.
To check for frequency-dependent inhibition, a 10 Hz protocol and a 20 Hz protocol were applied; namely,
From a resting membrane potential of -120 mV, 40-pulses (10 ms to -10 mV) was applied at 10 Hz (at 100 ms between pulses) and then at 20 Hz (at 50 ms between pulses).
Each parameter was recorded (P1, P2, P3, P40 from 10Hz and P40 from 20Hz) during a control period (lasting ~ 5 minutes) when establishing the baseline and during compound period (lasting ~ 12 minutes) when test compound (or vehicle) was applied. For each parameter, the value at the end of the compound period was normalized to the vehicle baseline; as follows Normalized Inhibition (NormCPD) = (CPD Valueend CPD period)/(VEH Valueend Control Period) [formula]
To adjust for any variance in the Na^+ current signal during the compound period (owing to cumulative inactivation independent of compound or shifts in biophysics over time), a dedicated segment of the recording wells in each 384 plate were dedicated to having only vehicle exposure. These vehicle-only recordings were used to correct for any apparent "run-up" or "run-down" in the experiment. Normalized Inhibition (NormVEH) = (VEH Valueend CPD period)/(VEH Valueend Control Period) [formula]
The adjusted inhibition was calculated as follows: % Inhibitioncorrected = 100 × (NormCPD −NormVEH)/(100−NormVEH) [formula]
Percent inhibition was determined and IC50 values were calculated using a 4 parameter logistic model within XLFit Software (IDBS, Boston MA): % Inhibitioncorrected = A + ((B−A))/((1 + (((x)/(C)))^D) [formula] where A and B are the maximal and minimum inhibition respectively, C is the IC50 concentration and D is the (Hill) slope.
The term IC50 denotes the concentration that gives 50% inhibition. Turning to `NS(=O)(=O)c1cccc(NC(=O)c2c3ccccc3nn2CC2CCCO2)c1` (racemic) [SC-16, N-(3-sulfamoylphenyl)-2-((tetrahydrofuran-2-yl)methyl)-2H-indazole-3-carboxamide], the IC50 was in the range of 1000 to 10000 nM.

Take `C[C@@H](C1CCCCC1)n1nc2ccccc2c1C(=O)Nc1cccc(S(C)(=O)=O)c1` (single isomer, unassigned) [SC-74a]: the IC50 was in the range of 100 to 1000 nM.

Regarding `C[C@H](C1CCCCC1)n1nc2ccccc2c1C(=O)Nc1cccc(S(C)(=O)=O)c1` (single isomer, unassigned) [SC-74b], the IC50 is 1000 to 10000 nM.

Turning to `Cc1ccc(Cl)c2c(C(=O)Nc3ccnc(C(N)=O)c3)n(CC3CCC(F)(F)C3)nc12` (single isomer, unassigned) [SC-82a, N-(2-carbamoylpyridin-4-yl)-4-chloro-2-((3,3-difluorocyclopentyl)methyl)-7-methyl-2H-indazole-3-carboxamide], the IC50 was not above 100 nM.

With `Cc1ccc(Cl)c2c(C(=O)Nc3ccnc(C(N)=O)c3)n(CC3CCC(F)(F)C3)nc12` (single isomer, unassigned) [SC-82b, N-(2-carbamoylpyridin-4-yl)-4-chloro-2-((3,3-difluorocyclopentyl)methyl)-7-methyl-2H-indazole-3-carboxamide], the IC50 was not above 100 nM.

As to `Cc1ccc(Cl)c2c(C(=O)Nc3cccc(S(N)(=O)=O)c3)n(CC3CCCCO3)nc12` (single isomer, unassigned) [SC-84a, 4-chloro-7-methyl-N-(3-sulfamoylphenyl)-2-((tetrahydro-2H-pyran-2-yl)methyl)-2H-indazole-3-carboxamide], the IC50 is not above 100 nM.

Regarding `Cc1cccc2c(C(=O)Nc3ccnc(S(N)(=O)=O)c3)n(C[C@H]3CCCCO3)nc12` (single isomer, unassigned) [SC-88b], the IC50 was not above 100 nM.

In the case of `O=C(Nc1ccnc(O)c1)c1c2ccc(F)cc2nn1CC1CCCCC1` [SC-05, 2-(cyclohexylmethyl)-6-fluoro-N-(2-hydroxypyridin-4-yl)indazole-3-carboxamide], the IC50 is not above 100 nM.

On to `O=C(Nc1ccnc(O)c1)c1c2ccc(F)cc2nn1CC1CCC(F)(F)CC1` [SC-06, 2-((4,4-difluorocyclohexyl)methyl)-6-fluoro-N-(2-hydroxypyridin-4-yl)-2H-indazole-3-carboxamide], for which the IC50 was in the range of 100 to 1000 nM.

As for `O=C(Nc1ccnc(O)c1)c1c2ccccc2nn1CC1CCCCC1` [SC-10, 2-(cyclohexylmethyl)-N-(2-hydroxypyridin-4-yl)-2H-indazole-3-carboxamide], the IC50 is 100 to 1000 nM.

As for `CS(=O)(=O)c1cccc(NC(=O)c2c3ccc(F)cc3nn2CC2CCCCC2)c1` [SC-11, 2-(cyclohexylmethyl)-6-fluoro-N-(3-methylsulfonylphenyl)indazole-3-carboxamide], the IC50 was not above 100 nM.

Regarding `O=C(Nc1cc[nH]c(=O)c1)c1c2ccccc2nn1CC1CCC1` [SC-12, 2-(cyclobutylmethyl)-N-(2-oxo-1,2-dihydropyridin-4-yl)-2H-indazole-3-carboxamide], the IC50 fell in the range of 1000 to 10000 nM.

Take `O=C(Nc1ccnc(O)c1)c1c2ccccc2nn1CC1CCCCCC1` [SC-13, 2-(cyclohcptylmethyl)-N-(2-hydroxypyridin-4-yl)indazole-3-carboxamide]: the IC50 is 100 to 1000 nM.

As for `CS(=O)(=O)c1cccc(NC(=O)c2c3ccccc3nn2CC2CCOCC2)c1` [SC-14, N-(3-methylsulfonylphenyl)-2-(oxan-4-ylmethyl)indazole-3-carboxamide], the IC50 was in the range of 1000 to 10000 nM.

As to `NS(=O)(=O)c1cccc(NC(=O)c2c3ccccc3nn2CC2CCOCC2)c1` [SC-15, N-(3-sulfamoylphenyl)-2-((tetrahydro-2H-pyran-4-yl)methyl)-2H-indazole-3-carboxamide], the IC50 is 100 to 1000 nM.

For `NC(=O)c1cccc(NC(=O)c2c3ccccc3nn2CC2CCCCC2)c1` [SC-17, N-(3-carbamoylphenyl)-2-(cyclohexylmethyl)indazole-3-carboxamide], the IC50 is not above 100 nM.

Consider `C[S+]([O-])c1cccc(NC(=O)c2c3ccc(F)cc3nn2CC2CCCCC2)c1` (stereo not drawn) [SC-19, 2-(cyclohexylmethyl)-6-fluoro-N-(3-(methylsulfinyl)phenyl)-2H-indazole-3-carboxamide], for which the IC50 lay in the range of 100 to 1000 nM.

`O=C(Nc1ccnc(O)c1)c1c2cccc(F)c2nn1CC1CCCCC1` [SC-20, 2-(cyclohexylmethyl)-7-fluoro-N-(2-hydroxypyridin-4-yl)indazole-3-carboxamide]: the IC50 lay within 100 to 1000 nM.

On to `NC(=O)c1cc(NC(=O)c2c3ccccc3nn2CC2CCOCC2)ccc1F` [SC-21, N-(3-Carbamoyl-4-fluorophenyl)-2-((tetrahydro-2H-pyran-4-yl)methyl)-2H-indazole-3-carboxamide], for which the IC50 lay in the range of 1000 to 10000 nM.

For the compound `CS(=O)(=O)c1cccc(NC(=O)c2c3ccccc3nn2CC2CCC(F)(F)CC2)c1` [SC-22, 2-[(4,4-difluorocyclohexyl)methyl]-N-(3-methylsulfonylphenyl)indazole-3-carboxamide], the IC50 fell in the range of 100 to 1000 nM.

As to `O=C(Nc1ccnc(O)c1)c1c2ccccc2nn1CC1CCC(F)(F)CC1` [SC-24, 2-[(4,4-difluorocyclohexyl)methyl]-N-(2-hydroxypyridin-4-yl)indazole-3-carboxamide], the IC50 was 1000 to 10000 nM.

As to `NC(=O)c1cc(NC(=O)c2c3ccccc3nn2CC2CCC(F)(F)CC2)ccc1F` [SC-25, N-(3-carbamoyl-4-fluorophenyl)-2-[(4,4-difluorocyclohexyl)methyl]indazole-3-carboxamide], the IC50 fell in the range of 100 to 1000 nM.

`CC(C)(O)c1cccc(NC(=O)c2c3ccccc3nn2CC2CCCCC2)c1` [SC-26, 2-(cyclohexylmethyl)-N-(3-(2-hydroxypropan-2-yl)phenyl)-2H-indazole-3-carboxamide]: the IC50 lay within 1000 to 10000 nM.

On to `NS(=O)(=O)c1cccc(NC(=O)c2c3ccc(F)cc3nn2CC2CCCCC2)c1` [SC-28, 2-(cyclohexylmethyl)-6-fluoro-N-(3-sulfamoylphenyl)indazole-3-carboxamide], for which the IC50 was not above 100 nM.

As to `O=C(Nc1ccnc(O)c1)c1c2cc(F)ccc2nn1CC1CCCCC1` [SC-32, 2-(cyclohexylmethyl)-5-fluoro-N-(2-hydroxypyridin-4-yl)indazole-3-carboxamide], the IC50 lay in the range of 100 to 1000 nM.

As to `CS(=O)(=O)n1cc(NC(=O)c2c3ccccc3nn2CC2CCCCC2)cn1` [SC-36, 2-(cyclohexylmethyl)-N-(1-(methylsulfonyl)-1H-pyrazol-4-yl)-2H-indazole-3-carboxamide], the IC50 is 100 to 1000 nM.

On to `CS(=O)(=O)c1cccc(NC(=O)c2c3ccccc3nn2CC2CCCCC2)c1` [SC-37, 2-(cyclohexylmethyl)-N-(3-methylsulfonylphenyl)indazole-3-carboxamide], for which the IC50 is not above 100 nM.

Consider `NS(=O)(=O)c1cccc(NC(=O)c2c3ccc(F)cc3nn2CC2CCC(F)(F)CC2)c1` [SC-38, 2-[(4,4-difluorocyclohexyl)methyl]-6-fluoro-N-(3-sulfamoylphenyl)indazole-3-carboxamide], for which the IC50 is not above 100 nM.

For the compound `Cn1ccc(NC(=O)c2c3ccccc3nn2CC2CCCCC2)cc1=O` [SC-39, 2-(cyclohexylmethyl)-N-(1-methyl-2-oxo-1,2-dihydropyridin-4-yl)-2H-indazole-3-carboxamide], the IC50 was 1000 to 10000 nM.

For `O=C(Nc1ccnc(O)c1)c1c2cccc(C(F)(F)F)c2nn1CC1CCCCC1` [SC-42, 2-(cyclohexylmethyl)-N-(2-hydroxypyridin-4-yl)-7-(trifluoromethyl)indazole-3-carboxamide], the IC50 is not above 100 nM.
